What was measured:
[1] = test system: NRF2 downstream target genes (NQO1, HMOX1, GCLC); assay: qPCR gene expression analysis of NRF2 and downstream targets in FaDu cells; type: cell-based, Human; conditions: for NQO1 expression (qPCR): vs wildtype unedited cells, without cisplatin exposure
Description: (§1) Total RNA was isolated from edited cells using TRIzol reagent and PureLink RNA Mini Kit (Thermo Fisher Scientific, Waltham, MA). Reverse transcription was conducted using the Applied Biosystems High-Capacity RNA-to-cDNA kit (Thermo Fisher Scientific, Waltham, MA). The cDNA was used as the template in the qPCR amplification of GAPDH (Fwd 5′ […]3′ (SEQ ID NO:76), Rev 5′[…]3′ (SEQ ID NO:77)), NRF2 (Fwd 5′[…]3′ (SEQ ID NO:78), Rev 5′[…]3′ (SEQ ID NO:79)), NQO1 (Fwd 5′[…]3′ (SEQ ID NO:80), Rev 5′[…]3′ (SEQ ID NO:81)), HMOX1 (Fwd 5′ […]3′ (SEQ ID NO:82), Rev 5′[…]3′ (SEQ ID NO:83)) and GCLC (Fwd 5′[…]3′ (SEQ ID NO:84), Rev 5′ […]3′ (SEQ ID NO:85)) transcripts using the SsoAdvanced universal SYBR Green Supermix (BioRad, Hercules, CA). The experiment was conducted at least twice with all samples run in duplicate at minimum. Relative expression levels of mRNA were calculated using the Livak method and normalized to the control. The data was plotted with the coefficient of variance.
(§2) For all gene editing studies from bench to bedside, it is important to employ a functional assay, accompanied by an internal functional control, to assess the efficiency of CRISPR/Cas activity. In this case, NRF2 is a transcription factor that controls the expression of over 200 genes. Thus, NRF2 disruption can be measured functionally through qPCR analysis of NQO1 expression, a keystone gene controlled by NRF2. NQO1 has been used as a standard measure of NRF2 activity in cancer cells^40. We also use downstream targets HMOX1 and GCLC, two major antioxidant enzymes, to assess NRF2 function.

NRF2 gene = NRF2 gene editing (indel/frameshift) analysis by NGS and CRISPResso2 in KYSE-410 cells; type: cell-based, Human; conditions: for gene editing activity (indel profiles): seventy-two hours post-transfection; for knocking out NRF2 (DNA sequence data): exon 4
Description: The NRF2 gene-coding sequence was entered into SnapGene and the following gRNAs were selected for targeting exon 2: (sg3) 5′-[…]-3′ (SEQ ID NO:75); as well as two gRNAs targeting Exon 4: (sg76) 5′-[…]-3′ (SEQ ID NO:16), (sg83) 5′-[…]-3′ (SEQ ID NO:24). Based on the gRNA design, synthetic single gRNAs were ordered from Synthego (Menlo Park, California, USA). CleanCap® Cas9 mRNA (5moU) was ordered from TriLink Biotechnologies (San Diego, CA, USA).
Either one million cells were seeded to a 75 cm^2 tissue culture flask or 2.5 million cells were seeded to a 175 cm^2 tissue culture flask 24 hours prior to transfection and allowed to reach 60-80% confluency. On the day of the transfection, cells were treated with Lipofectamine MessengerMAX reagent (Thermo Fisher Scientific, Waltham, MA) bearing 10 μg or 25 μg of Cas9mRNA and 10 μg or 25 μg of sgRNA, suspended in Opti-MEM, per the manufacturer's instructions. 39 μL or 97.5 μL of MessengerMax lipofectamine reagent was diluted in 1.5 mL or 3.75 mL OPTI-MEM medium and vortexed twice was incubated for ten minutes at room temperature, during which time the culture media was replaced with 15 mL or 25 mL of fresh media, as appropriate to the cell line. A total of 20 μg or 50 μg of RNA was then added to the diluted lipofectamine, consisting of 10 μg or 25 μg Cas9 mRNA and 10 μg or 25 μg sgRNA. The suspension was incubated at room temperature for an additional five minutes before being added, in full, to the tissue culture flask, which was then swirled gently to disperse the reagent. Treated cells were incubated for 72 hours at 37° C. prior to being assayed.
Targeted amplicon libraries were prepared using Illumina's 16S metagenomic sequencing library preparation protocol for MiSeq. Genomic DNA was extracted from cells using the Qiagen's DNeasy Blood & Tissue kit (Quiagen, Hilden, Germany) or QuickExtract reagent (Biosearch Technologies). The region surrounding the CRISPR target site for Exon 2 (398 bp) and Exon 4 (402 bp) of the NRF2 gene were amplified using the 2× Phusion Flash PCR master mix (Thermo Fisher Scientific, Waltham, MA). Post amplification, samples were cleaned using AMPure beads and DNA concentration was measured using the Qubit assay (Thermo Fisher Scientific, Waltham, MA). Samples are also run on TapeStation (Agilent Technologies Santa Clara, CA) to verify the presence of the desired amplicon. The samples were indexed using either the IDT for Illumina DNA/RNA UD indexes set A (Illumina San Diego, CA). Samples were again quantified using Qubit and average library size was calculated using the Tapestation amplicon size. Once pooled to the loading concentration, the libraries were sequenced using the MiSeq Reagent kit v2 (Illumina, San Diego, CA). Only the data that passed data QC in Sequencing Analysis Viewer, was analyzed using CRISPResso2 (CRISPResso2 website) to understand gene editing efficiency and frameshift analysis.

[2] = test system: NRF2 downstream target genes (NQO1, HMOX1, GCLC); assay: qPCR gene expression analysis of NRF2 and downstream targets in KYSE-410 cells; type: cell-based, Human; conditions: for NQO1 expression (qPCR): vs wildtype unedited cells, without cisplatin exposure
Description: as §1, §2

FaDu cells = conditions: for viability after a single dose of Cisplatin: exon 4 edited, cisplatin 72 hours; for sensitivity to cisplatin: exon 4 targeting

| Substance | expression of NQO1, HMOX1, and GCLC ([1]; 2 week timepoint) | expression of downstream target genes relative to NRF2 levels (ratio) ([1]; 72 hr) | gene editing activity (indel profiles) (NRF2 gene) [%] | NQO1 expression (qPCR) [1] | NQO1 expression (qPCR) [2] | knocking out NRF2 (DNA sequence data) (NRF2 gene) | viability after a single dose of Cisplatin (FaDu cells) | sensitivity to cisplatin (FaDu cells) | expression of NQO1 and GCLC ([1]; 2 week timepoint, compared to sg3 and sg76) | NQO1 and GCLC expression levels ([1]; 72 hr) | NQO1 and GCLC expression ([2]; vs exon 2 (sg3) or exon 4 (sg76) targeted cells) |
| --- | --- | --- | --- | --- | --- | --- | --- | --- | --- | --- | --- |
| sg3: gRNA targeting the DLG motif in exon 2 of NRF2; 5′-TATTTGACTTCAGTCAGCGA-3′ or TGGAGGCAAGATATAGATCT (further chemistry not given here) [reference compound] | increase in expression | do not show a reduction in expression of downstream target genes relative to NRF2 levels | 97 |  |  |  |  |  |  |  |  |
| sg76: gRNA targeting exon 4 of NRF2; TCACTTGTTCCTGATATTCC CGG (guide TCACTTGTTCCTGATATTCCCGG; listed as DNA, chemistry not given here) |  | do not show a reduction in expression of downstream target genes relative to NRF2 levels | 97 | significantly decreased | significantly decreased | efficient in knocking out NRF2 at exon 4 | significant reduction in viability | enhanced sensitivity to cisplatin |  |  |  |
| sg83: gRNA targeting exon 4 of NRF2; GTAGCCCCTGTTGATTTAGA CGG (guide GTAGCCCCTGTTGATTTAGACGG; listed as DNA, chemistry not given here) |  |  | 97 | significantly decreased | significantly decreased | efficient in knocking out NRF2 at exon 4 | significant reduction in viability | enhanced sensitivity to cisplatin | lower expression of NQO1 and GCLC | diminished | lower levels of NQO1 and GCLC expression |
